Data taken from patent publication US6586419B1, “Phototherapeutic inactivation of ocular viruses” (PDT Systems, Inc., priority 1997, dated 2003).
Values joined by “and” are separate entries in the source; they are usually repeats but may differ in a detail not shown here. Identical values can stand only once.

Columns and labels:
[1] = daily systemic intravenous administration; cited from earlier work
cell associated CMV = assay: Inactivation of cell-associated CMV by SnET2 and light (viral infectivity/titer); assay type: cell-based, cytomegalovirus; conditions: for viral infectivity (viral titer): LIGHT (52 mW/cm^2, 1.56 J/cm^2)
Method: To inactivate virus from a frozen viral stock with SnET2 and light doses, the following procedure was employed. Following light treatment, undiluted virus and drug/virus mixture were diluted 10-fold up to 1:10^6. All dilutions were used to infect sub-confluent, heat-shocked cultures of a cell line plated in tissue cultures of 24 well plate in triplicates. The infected cultures were treated with antibody against the major viral […] protein. An alkaline phosphatase labeled antibody to mouse IgG was then added followed by the alkaline phosphatase substrate. This produced a colored reaction which can be monitored microscopically in positive wells. The infected cells were characterized by a dark purple coloration in the nucleus. Viral titer or viral infectivity was determined by the last viral concentration that gave at least one infected cell per well.

[2] = system: cell-free Herpes simplex virus (HSV); assay: Inactivation of cell-free HSV by SnET2 and 660 nm light (viral infectivity/titer); assay type: cell-based
Method: The infectivity of cell-free HSV exposed to SnET2 doses ranging from 10 μg/mL to 0.1 μg/mL and 660 nm light doses of 1.56 J/cm^2 are shown in Table 1.
The infectivity of cell-free HSV exposed to 0.1 μg/mL SnET2 and light doses ranging from 1.56 J/cm^2 to 25 J/cm^2 are shown below in FIG. 2.
To inactivate virus from a frozen viral stock with SnET2 and light doses, the following procedure was employed. Following light treatment, undiluted virus and drug/virus mixture were diluted 10-fold up to 1:10^6. All dilutions were used to infect sub-confluent, heat-shocked cultures of a cell line plated in tissue cultures of 24 well plate in triplicates. The infected cultures were treated with antibody against the major viral capside protein. An alkaline phosphatase labeled antibody to mouse IgG was then added followed by the alkaline phosphatase substrate. This produced a colored reaction which can be monitored microscopically in positive wells. The infected cells were characterized by a dark purple coloration in the nucleus. Viral titer or viral infectivity was determined by the last viral concentration that gave at least one infected cell per well.

cell-associated HSV = assay: Inactivation of cell-associated HSV by SnET2 and light (viral infectivity/titer); assay type: cell-based, Herpes simplex virus; conditions: for viral infectivity (viral titer): LIGHT (52 mW/cm^2, 1.56 J/cm^2)
[3] = system: cytomegalovirus (CMV) retinitis; conditions: AIDS patients with CMV retinitis on anti-HIV and anti-CMV therapy; cited from earlier work

With `Nc1nc2c(ncn2COCCO)c(=O)[nH]1` [anywhere, acyclovir] as the molecule, how does the systemic toxicity [1] read?
Its systemic toxicity is “causing renal toxicity”.

Which “viral infectivity (viral titer)” value (cell associated CMV; 1 μg/mL, CMV 1:2) does the source give for `CCOC(=O)C1=Cc2c3nc(cc4nc(cc5[n-]c(cc6[n-]c2c(C)c6CC)c(C)c5CC)C(C)=C4CC)[C@@H](C)[C@]13CC.[Cl-].[Cl-].[Sn]` (racemic) [SnET2, tin ethyl etiopurpurin] here?
Its value is >10^3.

And the “viral infectivity (viral titer)” value (cell associated CMV; 1 μg/mL, CMV 1:10, two values given)?
The value was < 10^2 and 10^4.

And the “viral infectivity (viral titer)” value (cell associated CMV; 5 μg/mL, CMV 1:2)?
The value was >10^3.

What about the “viral infectivity (viral titer)” value (cell associated CMV; 5 μg/mL, CMV 1:10, two values given) of the same molecule?
Its value is < 10^2 and 10^3.

And the “inactivation of virus in vitro (summary)” value (cell associated CMV; SnET2 and light, cell associated CMV)?
Its value is “complete inactivation”.

What about the “inactivation (complete inactivation)” value (cell associated CMV; drug dose 1-10 μg/mL, light dose 15.6 J/cm^2) of the same molecule?
Its value is 2-5 log10.

What about the “viral infectivity (viral titer)” value ([2]; 0.1 μg/mL, 660 nm LIGHT (26 mW/cm^2, 1.56 J/cm^2)) of the same molecule?
The value was 10^3.

And the “viral infectivity (viral titer)” value ([2]; 0.1 μg/mL, DARK)?
The value was 10^6.

What about the “viral infectivity (viral titer), light dose response” value ([2]; 0.1 μg/mL, DARK) of the same molecule?
The value was 10^6.

And the “viral infectivity (viral titer), light dose response” value ([2]; 0.1 μg/mL, Light 26 mW/cm^2, 1.56 J/cm^2)?
Its value is 10^3.

What about the “viral infectivity (viral titer), light dose response” value ([2]; 0.1 μg/mL, Light 26 mW/cm^2, 3.12 J/cm^2) of the same molecule?
Its value is <10^3.

What about the “viral infectivity (viral titer), light dose response” value ([2]; 0.1 μg/mL, Light 26 mW/cm^2, 6.24 J/cm^2) of the same molecule?
Its value is <10^2.

What about the “viral infectivity (viral titer), light dose response” value ([2]; 0.1 μg/mL, Light 26 mW/cm^2, 12.5 J/cm^2) of the same molecule?
Its value is <10^1.

What about the “viral infectivity (viral titer), light dose response” value ([2]; 0.1 μg/mL, Light 26 mW/cm^2, 25 J/cm^2) of the same molecule?
The value was <10^1.

What about the “viral infectivity (viral titer)” value ([2]; 1 μg/mL, 660 nm LIGHT (26 mW/cm^2, 1.56 J/cm^2)) of the same molecule?
Its value is <10^1.

What about the “viral infectivity (viral titer)” value ([2]; 1 μg/mL, DARK) of the same molecule?
The value was 10^6.

And the dark toxicity ([2]; 10 μg/mL to 0.1 μg/mL, no light)?
The dark toxicity was “No dark toxicity was observed”.

What about the “viral infectivity (viral titer)” value ([2]; 10 μg/mL, 660 nm LIGHT (26 mW/cm^2, 1.56 J/cm^2)) of the same molecule?
Its value is <10^1.

And the “viral infectivity (viral titer)” value ([2]; 10 μg/mL, DARK)?
The value was 10^6.

And the “inactivation of virus in vitro (summary)” value ([2]; SnET2 and light, cell-free HSV)?
The value was “complete inactivation”.

What about the “inactivation of the virus (partial response)” value ([2]; drug dose 0.1 μg/mL, light dose 1.56 J/cm^2, 660 nm) of the same molecule?
The value was 3 log10.

What about the “inactivation of the virus (complete inactivation)” value ([2]; drug dose 1 μg/mL, light dose 1.56 J/cm^2, 660 nm) of the same molecule?
Its value is > 5 log10.

What about the “inactivation of the virus (complete inactivation)” value ([2]; drug dose 10 μg/mL, light dose 1.56 J/cm^2, 660 nm) of the same molecule?
The value was > 5 log10.

What about the “viral infectivity (viral titer)” value (cell-associated HSV; 1 μg/mL) of the same molecule?
The value was 10^3.

What about the “viral infectivity (viral titer)” value (cell-associated HSV; 5 μg/mL) of the same molecule?
Its value is <10^3.

And the “inactivation of virus in vitro (summary)” value (cell-associated HSV; SnET2 and light, cell associated HSV)?
Its value is “complete inactivation”.

Which results are given for `O=C(O)P(=O)(O)O` [foscarnet]?
systemic toxicity [1]: causing renal toxicity; median survival [3]: 12.6 months

For `Nc1nc(O)c2ncn(COC(CO)CO)c2n1` [ganciclovir], which systemic toxicity [1] is on record?
The systemic toxicity was “suppressing the bone marrow”.

What about the median survival [3] of the same molecule?
The median survival was 8.5 months.
